Measured values published in patent US10738028B2, “Spiro three-membered ring, spiro five-membered ring peptide deformylase inhibitor and use thereof in antibacteria and anti-tumor” (priority 2016, dated 2020).
Where two headings read alike, the source gives them in different places.

What was measured:
Type in all cases: cell-based
[1] = test system: MGC-803 gastric cancer cell line; assay: CCK-8 proliferation inhibition; conditions: concentration of 30 μM; for inhibition at 30 µM: Homo sapiens, MGC-803, 72 h
Outline: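 Cells seeded at 2000 cells/well, cultured overnight at 37 °C, 5% CO2, then exposed 72 h to compound dilutions in medium with 10% newborn bovine serum (1‰ DMSO control). Viability read with 1:10 diluted CCK-8 solution. Media: PC3 in F12; MGC-803 and Jurkat in 1640; MCF-7 in DMEM high glucose.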

[2] = test system: A549 lung cancer cell line; assay: CCK-8 proliferation inhibition; conditions: Homo sapiens, A549, 72 h, concentration of 30 μM
Outline: (§1)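 Plating at 2000 cells/well, then incubation overnight at 37° C. Next, a range of compound concentrations for 72 hours (control 1‰ DMSO). Finally, medium decanted and CCK-8 diluted 1:10 added.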

[3] = test system: BEL-7402 liver cancer cell line; assay: CCK-8 proliferation inhibition; conditions: concentration of 30 μM; for Inhibition of proliferation, Liver cancer BEL-7402: 72 hours, 30 µM
Outline: as §1

[4] = test system: HCT-116 colorectal cancer cell line; assay: CCK-8 proliferation inhibition; conditions: concentration of 30 μM, 72 hours, CCK-8; for inhibition at 30 µM: Homo sapiens, HCT-116, 72 h
Outline: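 Cells seeded at 2000 cells/well, cultured overnight at 37 °C, 5% CO2, then exposed to compound (DMSO; control 1‰ DMSO) for 72 h in McCoy's 5A with 10% newborn bovine serum. Viability read with 1:10 diluted CCK-8.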

[5] = test system: methicillin-sensitive Staphylococcus aureus (MSSA); assay: MIC, two-fold agar dilution (CLSI), clinical isolates
Outline: (§2)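 Samples are serially diluted two-fold in agar following CLSI guidance. Plates are then inoculated with the tested strains. The lowest inhibiting concentration is recorded as MIC.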

[6] = test system: methicillin-resistant Staphylococcus epidermidis (MRSE); assay: as above
Outline: as §2

[7] = test system: Escherichia coli (including ESBLs, non-ESBLs); assay: as above
Outline: as §2

[8] = test system: methicillin-resistant Staphylococcus aureus (MRSA); assay: as above
Outline: as §2

[9] = test system: Enterococcus faecalis (EFA); assay: as above
Outline: as §2

[10] = test system: methicillin-sensitive Staphylococcus epidermidis (MSSE); assay: as above
Outline: as §2

[11] = test system: Moraxella catarrhalis (BCA); assay: as above; conditions: for MIC: Moraxella catarrhalis; for Anti-bacterial activity (MIC), strain BCA 14-10: clinical isolate BCA 14-10
Outline: as §2

[12] = test system: Streptococcus pneoumoniae (SPN); assay: as above
Outline: as §2

[13] = test system: Enterococcus faecium (EFM); assay: as above
Outline: as §2

[14] = MIC in vitro anti-bacterial experiments, Gram-positive bacteria; conditions: lowest MIC reached; read-out: minimum inhibitory concentration against Gram-positive bacteria
Source text: 1. The invention adopts the two-fold agar dilution method recommended by the operating procedure of antimicrobial susceptibility testing set by American Clinical and Laboratory Standards Institute (CLSI) to determine the Minimum Inhibitory Concentration (MIC) of the test samples against the tested strains.

[15] = read-out: HCT116 inhibition rate/%

Cc1csc(NC(=O)[C@@H]2CC3(CC3)CN2C(=O)[C@H](CC2CCCC2)CN(O)C=O)n1 [Example 33]
31%: inhibition at 30 µM [4, 15]
20%: inhibition at 30 µM [2]
< 0.008 µg/mL: MIC (anti-bacterial activity) ([8]; strain MRSA 15-3) | MIC [14]
> 50%: inhibition at 30 µM ([3]; Homo sapiens, Bel-7402, 72 h)
≥ 0.06 µg/mL: MIC ([11]; lowest MIC reached, read-out: minimum inhibitory concentration against Moraxella catarrhalis, as low as)
0.015 µg/mL: MIC (anti-bacterial activity) ([6]; strain MRSE 15-1)
0.125 µg/mL: MIC (anti-bacterial activity) ([6]; strain MRSE 15-2) | MIC (anti-bacterial activity) ([6]; strain MRSE 15-3) | MIC (anti-bacterial activity) ([6]; strain MRSE 15-7) | MIC (anti-bacterial activity) ([10]; strain MSSE 15-3) | MIC (anti-bacterial activity) ([10]; strain MSSE 15-4) | MIC (anti-bacterial activity) ([10]; strain MSSE 15-5) | MIC (anti-bacterial activity) ([11]; strain BCA 14-8) | MIC (anti-bacterial activity) ([13]; strain EFM 15-3)
0.06 µg/mL: MIC (anti-bacterial activity) ([5]; strain MSSA 15-3) | MIC (anti-bacterial activity) ([5]; strain MSSA 15-6) | MIC (anti-bacterial activity) ([8]; strain MRSA 15-2) | MIC (anti-bacterial activity) ([8]; strain MRSA 15-4) | Anti-bacterial activity (MIC), strain BCA 14-10 [11] | MIC (anti-bacterial activity) ([11]; strain BCA 14-5) | MIC (anti-bacterial activity) ([11]; strain BCA 14-6) | MIC (anti-bacterial activity) ([12]; strain SPN 16-2)
0.25 µg/mL: MIC (anti-bacterial activity) ([11]; strain BCA 14-1) | MIC (anti-bacterial activity) ([11]; strain BCA 14-4)
1 µg/mL: MIC (anti-bacterial activity) ([9]; strain EFA 15-1) | MIC (anti-bacterial activity) ([9]; strain EFA 15-2) | MIC (anti-bacterial activity) ([9]; strain EFA 15-3) | MIC (anti-bacterial activity) ([9]; strain EFA 15-4) | MIC (anti-bacterial activity) ([9]; strain EFA 15-5) | MIC (anti-bacterial activity) ([9]; strain EFA 15-6) | MIC (anti-bacterial activity) ([9]; strain EFA 15-9) | MIC (anti-bacterial activity) ([12]; strain SPN 16-4)
0.06 to 0.25 µg/mL: MIC ([11]; 7 clinical isolates, range over strains, read-out: Moraxella catarrhalis (n = 7) MIC)
27%: inhibition at 30 µM [1]
57%: Inhibition of proliferation, Liver cancer BEL-7402 [3]
≥ 30%: inhibition at 30 µM ([4]; Table 5, read-out: Inhibition of proliferation, Colorectal cancer HCT116)
0.03 µg/mL: MIC (anti-bacterial activity) ([5]; strain MSSA 15-4) | MIC (anti-bacterial activity) ([5]; strain MSSA 15-5) | MIC (anti-bacterial activity) ([8]; strain MRSA 15-1) | MIC (anti-bacterial activity) ([10]; strain MSSE 15-6) | MIC (anti-bacterial activity) ([11]; strain BCA 14-7)
> 32 µg/mL: MIC (anti-bacterial activity) ([7]; strain ECO+ 15-1) | MIC (anti-bacterial activity) ([7]; strain ECO+ 15-2) | MIC (anti-bacterial activity) ([7]; strain ECO+ 15-3) | MIC (anti-bacterial activity) ([7]; strain ECO+ 15-4) | MIC (anti-bacterial activity) ([7]; strain ECO− 15-1) | MIC (anti-bacterial activity) ([7]; strain ECO− 15-2) | MIC (anti-bacterial activity) ([7]; strain ECO− 15-3) | MIC (anti-bacterial activity) ([7]; strain ECO− 15-4)
0.5 µg/mL: MIC (anti-bacterial activity) ([13]; strain EFM 15-1) | MIC (anti-bacterial activity) ([13]; strain EFM 15-2) | MIC (anti-bacterial activity) ([13]; strain EFM 15-4) | MIC (anti-bacterial activity) ([13]; strain EFM 15-5) | MIC (anti-bacterial activity) ([13]; strain EFM 15-6)

CC(C)(C)c1cc(NC(=O)[C@@H]2CC3(CC3)CN2C(=O)[C@H](CC2CCCC2)CN(O)C=O)no1 [Example 38]
< 0.008 µg/mL: MIC (anti-bacterial activity) ([10]; strain MSSE 15-6) | MIC [14]
0.25 µg/mL: MIC (anti-bacterial activity) ([5]; strain MSSA 15-3) | MIC (anti-bacterial activity) ([5]; strain MSSA 15-4) | MIC (anti-bacterial activity) ([6]; strain MRSE 15-1) | MIC (anti-bacterial activity) ([6]; strain MRSE 15-2) | MIC (anti-bacterial activity) ([6]; strain MRSE 15-3) | MIC (anti-bacterial activity) ([6]; strain MRSE 15-7) | MIC (anti-bacterial activity) ([8]; strain MRSA 15-4) | MIC (anti-bacterial activity) ([9]; strain EFA 15-3) | MIC (anti-bacterial activity) ([10]; strain MSSE 15-3) | MIC (anti-bacterial activity) ([10]; strain MSSE 15-4) | MIC (anti-bacterial activity) ([10]; strain MSSE 15-5) | Anti-bacterial activity (MIC), strain BCA 14-10 [11] | MIC (anti-bacterial activity) ([11]; strain BCA 14-1) | MIC (anti-bacterial activity) ([11]; strain BCA 14-7) | MIC (anti-bacterial activity) ([11]; strain BCA 14-8) | MIC (anti-bacterial activity) ([12]; strain SPN 16-2) | MIC (anti-bacterial activity) ([13]; strain EFM 15-1) | MIC (anti-bacterial activity) ([13]; strain EFM 15-2) | MIC (anti-bacterial activity) ([13]; strain EFM 15-3) | MIC (anti-bacterial activity) ([13]; strain EFM 15-5)
16 µg/mL: MIC (anti-bacterial activity) ([7]; strain ECO+ 15-1) | MIC (anti-bacterial activity) ([7]; strain ECO+ 15-3) | MIC (anti-bacterial activity) ([7]; strain ECO+ 15-4) | MIC (anti-bacterial activity) ([7]; strain ECO− 15-1)
32 µg/mL: MIC (anti-bacterial activity) ([7]; strain ECO+ 15-2) | MIC (anti-bacterial activity) ([7]; strain ECO− 15-2) | MIC (anti-bacterial activity) ([7]; strain ECO− 15-3) | MIC (anti-bacterial activity) ([7]; strain ECO− 15-4)
0.5 µg/mL: MIC (anti-bacterial activity) ([11]; strain BCA 14-5) | MIC (anti-bacterial activity) ([12]; strain SPN 16-4) | MIC (anti-bacterial activity) ([13]; strain EFM 15-4) | MIC (anti-bacterial activity) ([13]; strain EFM 15-6)
52%: HCT116 inhibition rate/% ([4]; 30 µM)
0.125 µg/mL: MIC (anti-bacterial activity) ([5]; strain MSSA 15-5) | MIC (anti-bacterial activity) ([5]; strain MSSA 15-6) | MIC (anti-bacterial activity) ([8]; strain MRSA 15-1) | MIC (anti-bacterial activity) ([8]; strain MRSA 15-2) | MIC (anti-bacterial activity) ([8]; strain MRSA 15-3)
75%: Inhibition of proliferation, Liver cancer BEL-7402 [3]
4 µg/mL: MIC (anti-bacterial activity) ([9]; strain EFA 15-1) | MIC (anti-bacterial activity) ([9]; strain EFA 15-2) | MIC (anti-bacterial activity) ([9]; strain EFA 15-4) | MIC (anti-bacterial activity) ([9]; strain EFA 15-5) | MIC (anti-bacterial activity) ([9]; strain EFA 15-6) | MIC (anti-bacterial activity) ([9]; strain EFA 15-9)
38%: inhibition at 30 µM [2]
> 50%: inhibition at 30 µM [1] | inhibition at 30 µM [4, 15]
1 µg/mL: MIC (anti-bacterial activity) ([11]; strain BCA 14-4) | MIC (anti-bacterial activity) ([11]; strain BCA 14-6)
50%: Inhibition of proliferation, Gastric cancer MGC-803 ([1]; 72 hours, 30 µM)
